For 13 compounds, IC50 results are on record in patent US7977352B2, “Triazolopyridine compounds useful for the treatment of degenerative and inflammatory diseases” (Galapagos NV, priority 2006, dated 2011).

For experiment [1], the system named is MMP1 expression by activated synovial fibroblasts (RASFs). Put plainly: MMP assay: MMP1 expression by RASFs triggered with TNF-α (MMP1 ELISA). It counts as cell-based. The conditions noted are these: TNF-α trigger 10 ng/mL, semi-quantitative score, read-out: REDUCTION MMP1/TNFa. Summed up: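 Primary RA synovial fibroblasts (passage 10–12, 3000 cells/well) were preincubated 90 min with compound in M199/1% FBS (0.2% DMSO), then triggered with TNF-α at 10 ng/mL final or 12.5% complex trigger for 48 h. MMP1 in supernatant was measured by sandwich chemiluminescent ELISA; untriggered and vehicle-triggered wells served as min/max controls.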
Background: An ELISA detects its analyte on a solid surface through an enzyme-linked reagent.

Experiment [2] shares this test system. Briefly: MMP assay: MMP1 expression by RASFs triggered with 'complex trigger' (supernatant of TNF-α-treated THP-1 cells). It counts as cell-based. The conditions noted are these: 'complex trigger' 12.5%, MMP1 ELISA, semi-quantitative score, read-out: Reduction MMP1/THP1. On the procedure:
A 384-well format ELISA for measurement of MMP1 is developed. Various primary antibodies are tested, as well as various ELISA protocols. The following protocol is developed and validated to measure MMP1 levels in SF supernatant in 384 well plates: white Lumitrac 600 384 well plates (Greiner) are coated with 2 μg/mL anti-MMP1 antibody MAB1346 (Chemicon). The antibody is diluted in buffer 40 (1.21 g Tris base (Sigma), 0.58 g NaCl (Calbiochem) and 5 mL 10% NaN3 (Sigma) in 1 L milliQ water and adjusted to pH 8.5). After overnight incubation at 4° C., plates are washed with PBS (80 g NaCl, 2 g KCl (Sigma), 11.5 g Na2HPO4.7H2O and 2 g KH2PO4 in 10 L milliQ; pH 7.4) and blocked with 100 μL/well Casein buffer (2% Casein (VWR International) in PBS). Next day, casein buffer is removed from ELISA plates and replaced by 50 μL/well EC buffer (4 g casein, 2.13 g Na2HPO4 (Sigma), 2 g bovine albumin (Sigma), 0.69 g NaH2PO4.H2O (Sigma), 0.5 g CHAPS (Roche), 23.3 g NaCl, 4 mL 0.5 M EDTA pH 8 (Invitrogen), 5 mL 10% NaN3 in 1 L milliQ and adjusted to pH 7.0). 0.25 mM DTT (Sigma) is added to the thawed sample plates. After removal of the EC buffer, 20 μL of sample is transferred to the ELISA plates. After overnight incubation at 4° C. plates are washed twice with PBS and once with PBST (PBS with 0.05% Tween-20 (Sigma)) and incubated with 35 μL/well biotinylated anti-MMP1 antibody solution (R&D). This secondary antibody is diluted in buffer C (0.82 g NaH2PO4.H2O, 4.82 g Na2HPO4, 46.6 g NaCl, 20 g bovine albumin and 4 mL 0.5M EDTA pH 8 in 2 L milliQ and adjusted to pH 7.0) at a concentration of 5 μg/mL. After 2 h of incubation at RT, plates are washed as described above and incubated with 50 μL/well streptavidin-HRP conjugate (Biosource). Streptavidin-HRP conjugate is diluted in buffer C at a concentration of 0.25 μg/mL. After 45 min, plates are washed as described above and incubated for 5 min with 50 μL/well BM Chem ELISA Substrate (Roche). Readout is performed on the Luminoscan Ascent Luminometer (Labsystems) with an integration time of 200 msec or with an Envision reader (Perkin Elmer).
The increase of MMP1 expression by SFs upon treatment with cytokines relevant in the field of RA (TNF-α, IL1β and OSM) or a combination thereof is shown in FIG. 2 as white bars. For this experiment, SFs are seeded in 96 well plates, 3,000 cells/well. 24 h later, the medium is changed to M199 medium supplemented with 1% FBS. One day after the medium change, cytokines or combinations thereof are added to the cultures, each cytokine being added to a final concentration of 25 ng/mL. 72 h after cytokine addition, the supernatant is collected and processed in the MMP1 ELISA as described in the protocol given above. In parallel with this experiment, SFs are triggered, using the same protocol, with the supernatant of THP1 cells (2-fold diluted in M199+1% FBS) treated with the same cytokines or combinations of cytokines for 48 h in M199 medium+1% FBS. The induction of the MMP1 expression by SFs triggered with the supernatants of TNF-α-treated THP1 cells is stronger (>4.5 fold induction) as compared to the SFs triggered with recombinant TNF-α alone (3-fold induction) and almost equals the 5-fold induction obtained by a mixture of 3 purified cytokines (TNF-α, IL1βb, OSM). […] As the role of TNF-α in the RA pathogenesis is validated (TNF-α-blockers as Infliximab and Ethanercept show some efficacy in the treatment of RA patients) and the THP-1 cells are representative for monocytes/macrophages present in the joint of RA patients, the TNF-α-based trigger mixture prepared by contacting THP-1 cells with TNF-α will contain factors present in the joints of RA patients and subsequently is relevant to RA. This TNF-α-based complex trigger, further referred to as the ‘complex trigger’, will further be used as basis for the ‘MMP assay’. For preparing a stock of this ‘complex trigger’, THP-1 cells are used between passage 8 and 16. […]

The structures appear in SMILES notation.

As to `CN1CCN(c2ccc(Nc3ccc(-c4cn[nH]c4)n4ncnc34)cc2)CC1` [Example 36, N-[4-(4-methylpiperazin-1-yl)phenyl]-5-(1H-pyrazol-4-yl)[1,2,4]triazolo[1,5-a]pyridin-8-amine], the IC50 in experiment [1] (48 hrs) is 1000 to 5000 nM; in experiment [2] (48 hrs), more than 10000 nM.
Take `O=C(NCc1cccnc1)c1ccc(Nc2ccc(-c3cn[nH]c3)n3ncnc23)cc1` [Example 37, 4-{[5-(1H-pyrazol-4-yl)[1,2,4]triazolo[1,5-a]pyridin-8-yl]amino}-N-(pyridin-3-ylmethyl)benzamide]: the IC50 in experiment [1] (Fibroblast, 48 h) is less than 500 nM; in experiment [2] (Homo sapiens, THP-1, 48 h) it was 1000 to 5000 nM.
In the case of `O=C(NCc1cccnc1)c1ccc(Nc2ccc(-c3cn[nH]c3)n3ncnc23)cc1` [Example 3, 4-[5-(1H-Pyrazol-4-yl)-[1,2,4]triazolo[1,5-a]pyridin-8-ylamino]-N-pyridin-3-ylmethyl-benzamide], the values for the IC50 in experiment [1] (48 hrs) and in experiment [2] (48 hrs) were 501 to 1000 nM and 1000 to 5000 nM, respectively.
Turning to `NC(=O)c1ccc(-c2ccc(Nc3ccc(N4CCOCC4)cc3)c3ncnn23)cc1` [Example 1, 4-[8-(4-Morpholin-4-yl-phenylamino)-[1,2,4]triazolo[1,5-a]pyridin-5-yl]-benzamide], the IC50 in experiment [1] (Fibroblast, 48 h) is 501 to 1000 nM; in experiment [2] (Homo sapiens, THP-1, 48 h), more than 10000 nM.
Turning to `Cc1[nH]ncc1-c1ccc(Nc2ccc(N3CCOCC3)cc2)c2ncnn12` [Example 8, [5-(5-Methyl-1H-pyrazol-4-yl)-[1,2,4]triazolo[1,5-a]pyridin-8-yl]-(4-morpholin-4-yl-phenyl)-amine], the IC50 in experiment [1] (48 hrs) fell in the range of 1000 to 5000 nM; in experiment [2] (48 hrs), 5000 to 10000 nM.
In the case of `CN1CCN(c2ccc(Nc3ccc(-c4cc[nH]c(=O)c4)n4ncnc34)cc2)CC1` [Example 4, 4-{8-[4-(4-Methyl-piperazin-1-yl)-phenylamino]-[1,2,4]triazolo[1,5-a]pyridin-5-yl}-1H-pyridin-2-one], the IC50 in experiment [1] (48 hrs) fell in the range of 501 to 1000 nM; in experiment [2] (48 hrs), 1000 to 5000 nM.
In the same order, the values of `O=C(NCc1cccnc1)c1ccc(Nc2ccc(-c3cc[nH]c(=O)c3)n3ncnc23)cc1` [Example 5, 4-[5-(2-oxo-1,2-dihydro-pyridin-4-yl)-[1,2,4]triazolo[1,5-a]pyridin-8-ylamino]-N-pyridin-3-ylmethyl-benzamide] are 501 to 1000 nM and more than 10000 nM.
For the compound `CN1CCN(c2ccc(Nc3ccc(-c4cn[nH]c4)n4ncnc34)cc2)CC1` [Example 2, [4-(4-Methyl-piperazin-1-yl)-phenyl]-[5-(1H-pyrazol-4-yl)-[1,2,4]triazolo[1,5-a]pyridin-8-yl]-amine], the IC50 in experiment [1] (Fibroblast, 48 h) was 501 to 1000 nM; in experiment [2] (Homo sapiens, THP-1, 48 h), 5000 to 10000 nM.
As for `O=C(NCc1cccnc1)c1ccc(Nc2ccc(-c3cc[nH]c(=O)c3)n3ncnc23)cc1` [Example 41, 4-{[5-(2-oxo-1,2-dihydropyridin-4-yl)[1,2,4]triazolo[1,5-a]pyridin-8-yl]amino}-N-(pyridin-3-ylmethyl)benzamide], the IC50 in experiment [1] (Fibroblast, 48 h) is 1000 to 5000 nM; in experiment [2] (Homo sapiens, THP-1, 48 h), more than 10000 nM.
In the case of `CN1CCN(c2ccc(Nc3ccc(-c4ccc(C(N)=O)c(F)c4)n4ncnc34)cc2)CC1` [Example 42, 2-fluoro-4-(8-{[4-(4-methylpiperazin-1-yl)phenyl]amino}[1,2,4]triazolo[1,5-a]pyridin-5-yl)benzamide], the IC50 in experiment [1] (Fibroblast, 48 h) was 501 to 1000 nM; in experiment [2] (Homo sapiens, THP-1, 48 h) it was more than 10000 nM.
For `c1nc2c(Nc3ccc(N4CCOCC4)cc3)ccc(-c3cn[nH]c3)n2n1` [Example 7, (4-Morpholin-4-yl-phenyl)-[5-(1H-pyrazol-4-yl)-[1,2,4]triazolo[1,5-a]pyridin-8-yl]-amine], the IC50 in experiment [1] (Fibroblast, 48 h) lay within 501 to 1000 nM; in experiment [2] (Homo sapiens, THP-1, 48 h), 5000 to 10000 nM.
On to `CN1CCN(c2ccc(Nc3ccc(-c4cc[nH]c(=O)c4)n4ncnc34)cc2)CC1` [Example 40, 4-(8-{[4-(4-methylpiperazin-1-yl)phenyl]amino}[1,2,4]triazolo[1,5-a]pyridin-5-yl)pyridin-2(1H)-one], for which the IC50 in experiment [1] (Fibroblast, 48 h) lay within 1000 to 5000 nM; in experiment [2] (Homo sapiens, THP-1, 48 h), 1000 to 5000 nM.
As to `Cc1[nH]ncc1-c1ccc(Nc2ccc(N3CCOCC3)cc2)c2ncnn12` [Example 39, 5-(5-methyl-1H-pyrazol-4-yl)-N-(4-morpholin-4-ylphenyl)[1,2,4]triazolo[1,5-a]pyridin-8-amine], the IC50 in experiment [1] (48 hrs) was 5000 to 10000 nM; in experiment [2] (Homo sapiens, THP-1, 48 h) it was more than 10000 nM.
